This passage reports IC50 results from BindingDB's records for PubMed 38477709 (Washington University School of Medicine).

In general, IC50 refers to the concentration that inhibits the measured activity by half. The low end stands for greater potency in that assay, the high end for weaker potency in that assay.

For this test, the target named is Coagulation factor X (Homo sapiens, UniProt P00742). The test is described as follows: Inhibition of factor Xa (unknown origin) using Bz-lle-Glu-Gly-Arg-pNA as chromogenic substrate preincubated for 30 mins followed by substrate addition by absorbance based analysis.
Sequence of Coagulation factor X (P00742 41-179 limits assumed): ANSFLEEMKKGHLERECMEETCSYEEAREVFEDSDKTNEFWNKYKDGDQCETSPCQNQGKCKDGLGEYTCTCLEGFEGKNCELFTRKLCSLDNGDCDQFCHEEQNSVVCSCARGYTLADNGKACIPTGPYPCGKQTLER
Sequence of Coagulation factor X (P00742 235-488 limits assumed): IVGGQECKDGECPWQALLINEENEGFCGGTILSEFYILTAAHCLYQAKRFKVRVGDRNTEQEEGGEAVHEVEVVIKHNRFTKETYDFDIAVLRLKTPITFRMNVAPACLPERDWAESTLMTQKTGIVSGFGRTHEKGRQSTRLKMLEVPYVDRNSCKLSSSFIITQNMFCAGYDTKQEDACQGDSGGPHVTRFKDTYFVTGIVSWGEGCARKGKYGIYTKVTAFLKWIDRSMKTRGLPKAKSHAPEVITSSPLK

`CC(=O)N[C@H]1Cc2ccc(cc2)OCC=CCNC(=O)C[C@@H](C(=O)N[C@@H](CCCNC(=N)N)C(=O)c2nc3ccccc3s2)NC(=O)[C@H](CC(C)C)NC1=O` had an IC50 above 20 µM. The value for `CC(=O)N[C@H]1Cc2ccc(cc2)OCC=CCNC(=O)CC[C@@H](C(=O)N[C@@H](CCCNC(=N)N)C(=O)c2nc3ccccc3s2)NC(=O)[C@H](CC(C)C)NC1=O` was above 20 µM.
